This passage reports IC50 results from patent publication US10239873B2, “7-azaindole or 4,7-diazaindole derivatives as IKKϵ epsilon and TBK1 inhibitor and pharmaceutical composition comprising same” (GREEN CROSS CORPORATION, priority 2015, dated 2019).

The experiment deals with T1, TBK1 (Homo sapiens, UniProt Q9UHD2).
T1 construct: purchased Promega (Invitrogen is also named in the same bracket) V4158; PR8031B; V3991 (not assigned to the two kinases)
T1 sequence (Q9UHD2 1-729): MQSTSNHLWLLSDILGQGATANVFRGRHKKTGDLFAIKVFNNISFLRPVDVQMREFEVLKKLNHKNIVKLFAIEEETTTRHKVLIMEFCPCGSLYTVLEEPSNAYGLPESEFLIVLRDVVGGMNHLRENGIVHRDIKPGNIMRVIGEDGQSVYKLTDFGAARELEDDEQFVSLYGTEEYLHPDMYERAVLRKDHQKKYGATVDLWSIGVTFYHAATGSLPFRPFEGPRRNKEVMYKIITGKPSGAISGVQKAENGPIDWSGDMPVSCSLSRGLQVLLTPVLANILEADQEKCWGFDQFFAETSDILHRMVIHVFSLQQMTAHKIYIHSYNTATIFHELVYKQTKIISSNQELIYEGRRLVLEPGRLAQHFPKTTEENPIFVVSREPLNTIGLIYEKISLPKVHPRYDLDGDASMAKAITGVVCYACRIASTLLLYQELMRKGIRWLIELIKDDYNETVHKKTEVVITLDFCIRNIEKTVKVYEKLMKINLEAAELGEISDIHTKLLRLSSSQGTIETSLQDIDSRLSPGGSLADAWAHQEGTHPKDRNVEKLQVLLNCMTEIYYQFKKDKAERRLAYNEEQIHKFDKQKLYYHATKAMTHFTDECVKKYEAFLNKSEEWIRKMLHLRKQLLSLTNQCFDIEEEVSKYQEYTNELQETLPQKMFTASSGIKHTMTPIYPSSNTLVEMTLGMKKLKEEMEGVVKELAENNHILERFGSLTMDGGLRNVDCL
In words: ADP-Glo Kinase Assay, inhibition activity on TBK1. In kind it is biochemical. The method, then: Inhibition activities on IKKϵ and TBK1 were evaluated using the compounds of Examples 1 to 250.
The inhibition activities on IKKϵ and TBK1 were measured by a luminometer, IKKϵ/TBK1 Kinase Enzyme System (Promega, Ca# V4158; Invitrogen, PR8031B, Promega, Ca# V3991) and ADP-Glo Kinase Assay using ADP-Glo™ Kinase Analysis Kit (Promega, Ca# V9101) and a kinase reaction buffer [40 mM Tris(pH 7.5), 20 mM MgCl2, 0.1 mg/mL BSA] in accordance with the manufacturer's protocol.
The molecule `CC(C)NC(=O)N1CC=C(c2c[nH]c3ncc(-c4ccc(CN5CCOCC5)s4)cc23)CC1` [Example 34, N-isopropyl-4-(5-(5-(morpholinomethyl)thiophen-2-yl)-1H-pyrrolo[2,3-b]pyridin-3-yl)-5,6-dihydropyridine-1(2H)-carboxamide] returned an IC50 of 0.73 nM.
With `CCC(C)NC(=O)N1CC=C(c2c[nH]c3ncc(-c4ccc(CN5CCOCC5)s4)cc23)CC1` (stereo not shown) [Example 43, N-(sec-butyl)-4-(5-(5-(morpholinomethyl)thiophen-2-yl)-1H-pyrrolo[2,3-b]pyridin-3-yl)-5,6-dihydropyridine-1(2H)-carboxamide] the figure was 5.5 nM; with `CCC(C)NC(=O)N1CC=C(c2c[nH]c3ncc(-c4ccc(OC)c(OC)c4)cc23)CC1` (stereo not shown) [Example 44, N-(sec-butyl)-4-(5-(3,4-dimethoxyphenyl)-1H-pyrrolo[2,3-b]pyridin-3-yl)-5,6-dihydropyridine-1(2H)-carboxamide], 7.5 nM; with `COc1ccc(-c2cnc3[nH]cc(C4=CCN(C(=O)NC5CCCC5)CC4)c3c2)cc1OC` [Example 49, N-cyclopentyl-4-(5-(3,4-dimethoxyphenyl)-1H-pyrrolo[2,3-b]pyridin-3-yl)-5,6-dihydropyridine-1(2H)-carboxamide], 32 nM.
With `CS(=O)(=O)c1ccc(-c2cnc3[nH]cc(C4=CCN(C(=O)NC5CCCC5)CC4)c3c2)cc1` [Example 51, N-cyclopentyl-4-(5-(4-(methylsulfonyl)phenyl)-1H-pyrrolo[2,3-b]pyridin-3-yl)-5,6-dihydropyridine-1(2H)-carboxamide] the figure was 51 nM.
With `CCS(=O)(=O)c1ccc(-c2cnc3[nH]cc(C4=CCN(C(=O)NC5CCCC5)CC4)c3c2)cc1` [Example 53, N-cyclopentyl-4-(5-(4-(ethylsulfonyl)phenyl)-1H-pyrrolo[2,3-b]pyridin-3-yl)-3,6-dihydropyridine-1(2H)-carboxamide] the figure was 66 nM; with `NS(=O)(=O)c1cccc(-c2cnc3[nH]cc(C4=CCN(C(=O)NC5CCCC5)CC4)c3c2)c1` [Example 57, N-cyclopentyl-4-(5-(3-sulfamoylphenyl)-1H-pyrrolo[2,3-b]pyridin-3-yl)-5,6-dihydropyridine-1(2H)-carboxamide], 31 nM; with `NS(=O)(=O)c1ccc(-c2cnc3[nH]cc(C4=CCN(C(=O)NC5CCCC5)CC4)c3c2)cc1` [Example 58, N-cyclopentyl-4-(5-(4-sulfamoylphenyl)-1H-pyrrolo[2,3-b]pyridin-3-yl)-5,6-dihydropyridine-1(2H)-carboxamide], 61 nM.
As for `CNS(=O)(=O)c1cccc(-c2cnc3[nH]cc(C4=CCN(C(=O)NC5CCCC5)CC4)c3c2)c1` [Example 59, N-cyclopentyl-4-(5-(3-(N-methylsulfamoyl)phenyl)-1H-pyrrolo[2,3-b]pyridin-3-yl)-5,6-dihydropyridine-1(2H)-carboxamide], the IC50 worked out at 30 nM.
In turn, `CNS(=O)(=O)c1ccc(-c2cnc3[nH]cc(C4=CCN(C(=O)NC5CCCC5)CC4)c3c2)cc1` [Example 60, N-cyclopentyl-4-(5-(4-(N-methylsulfamoyl)phenyl)-1H-pyrrolo[2,3-b]pyridin-3-yl)-5,6-dihydropyridine-1(2H)-carboxamide] showed a concentration for half-maximal inhibition (IC50) of 38 nM.
Consider `O=C(NC1CCCC1)N1CC=C(c2c[nH]c3ncc(-c4ccc(S(=O)(=O)N5CCOCC5)cc4)cc23)CC1` [Example 61, N-cyclopentyl-4-(5-(4-(morpholinosulfonyl)phenyl)-1H-pyrrolo[2,3-b]pyridin-3-yl)-5,6-dihydropyridine-1(2H)-carboxamide], for which 86 nM corresponded to half-maximal inhibition (IC50).
The value for `O=C(NC1CCCC1)N1CC=C(c2c[nH]c3ncc(-c4cccc(S(=O)(=O)N5CCOCC5)c4)cc23)CC1` [Example 62, N-cyclopentyl-4-(5-(3-(morpholinosulfonyl)phenyl)-1H-pyrrolo[2,3-b]pyridin-3-yl)-5,6-dihydropyridine-1(2H)-carboxamide] was 91 nM; that for `O=C(NC1CCCC1)N1CC=C(c2c[nH]c3ncc(-c4ccc(CCN5CCOCC5)cc4)cc23)CC1` [Example 64, N-cyclopentyl-4-(5-(4-(2-morpholinoethyl)phenyl)-1H-pyrrolo[2,3-b]pyridin-3-yl)-5,6-dihydropyridine-1(2H)-carboxamide] was 110 nM.
`CC(=O)Nc1ccc(N)c(-c2cnc3[nH]cc(C4=CCN(C(=O)NC5CCCC5)CC4)c3c2)c1` [Example 65, 4-(5-(5-Acetamido-2-aminophenyl)-1H-pyrrolo[2,3-b]pyridin-3-yl)-N-cyclopentyl-5,6-dihydropyridine-1(2H)-carboxamide] yielded a half-maximal inhibitory concentration (IC50) of 1900 nM.
Regarding `O=C(NCc1ccco1)c1ccc(-c2cnc3[nH]cc(C4=CCN(C(=O)NC5CCCC5)CC4)c3c2)cc1` [Example 66, N-cyclopentyl-4-(5-(4-((furan-2-ylmethyl)carbamoyl)phenyl)-1H-pyrrolo[2,3-b]pyridin-3-yl)-5,6-dihydropyridine-1(2H)-carboxamide], the IC50 came out at 250 nM.
`O=C(NCc1ccco1)c1cccc(-c2cnc3[nH]cc(C4=CCN(C(=O)NC5CCCC5)CC4)c3c2)c1` [Example 67, N-cyclopentyl-4-(5-(3-((furan-2-ylmethyl)carbamoyl)phenyl)-1H-pyrrolo[2,3-b]pyridin-3-yl)-5,6-dihydropyridine-1(2H)-carboxamide] came in with an IC50 of 410 nM.
With `O=C(NC1CCCC1)N1CC=C(c2c[nH]c3ncc(-c4cccc(OCCN5CCOCC5)c4)cc23)CC1` [Example 68, N-cyclopentyl-4-(5-(3-(2-morpholinoethoxy)phenyl)-1H-pyrrolo[2,3-b]pyridin-3-yl)-5,6-dihydropyridine-1(2H)-carboxamide] the figure was 64 nM; with `O=C(NC1CCCC1)N1CC=C(c2c[nH]c3ncc(-c4ccc(OCCN5CCOCC5)cc4)cc23)CC1` [Example 69, N-cyclopentyl-4-(5-(4-(2-morpholinoethoxy)phenyl)-1H-pyrrolo[2,3-b]pyridin-3-yl)-5,6-dihydropyridine-1(2H)-carboxamide], 65 nM; with `O=C(NC1CCCC1)N1CC=C(c2c[nH]c3ncc(-c4ccc(OCCCN5CCOCC5)cc4)cc23)CC1` [Example 70, N-cyclopentyl-4-(5-(4-(3-morpholinopropoxy)phenyl)-1H-pyrrolo[2,3-b]pyridin-3-yl)-5,6-dihydropyridine-1(2H)-carboxamide], 400 nM.
With `CN1CCN(Cc2ccc(-c3cnc4[nH]cc(C5=CCN(C(=O)NC6CCCC6)CC5)c4c3)s2)CC1` [Example 71, N-cyclopentyl-4-(5-(5-((4-methylpiperazin-1-yl)methyl)thiophen-2-yl)-1H-pyrrolo[2,3-b]pyridin-3-yl)-5,6-dihydropyridine-1(2H)-carboxamide] the figure was 5 nM; with `O=C(NC1CCCC1)N1CC=C(c2c[nH]c3ncc(-c4csc(CN5CCOCC5)c4)cc23)CC1` [Example 73, N-cyclopentyl-4-(5-(5-(morpholinomethyl)thiophen-3-yl)-1H-pyrrolo[2,3-b]pyridin-3-yl)-5,6-dihydropyridine-1(2H)-carboxamide], 620 nM; with `O=C(NC1CCCC1)N1CC=C(c2c[nH]c3ncc(-c4ccc(C(=O)N5CCOCC5)s4)cc23)CC1` [Example 74, N-cyclopentyl-4-(5-(5-(morpholine-4-carbonyl)thiophen-2-yl)-1H-pyrrolo[2,3-b]pyridin-3-yl)-5,6-dihydropyridine-1(2H)-carboxamide], 53 nM.
In the case of `O=C(NC1CCCC1)N1CC=C(c2c[nH]c3ncc(-c4ccc(C(=O)N5CCOCC5)cc4)cc23)CC1` [Example 75, N-cyclopentyl-4-(5-(4-(morpholine-4-carbonyl)phenyl)-1H-pyrrolo[2,3-b]pyridin-3-yl)-5,6-dihydropyridine-1(2H)-carboxamide], the midpoint of inhibition, the IC50, lay at 25 nM.
The value for `O=C(NC1CCCC1)N1CC=C(c2c[nH]c3ncc(-c4ccc(Cl)c(C(=O)N5CCOCC5)c4)cc23)CC1` [Example 76, 4-(5-(4-Chloro-3-(morpholine-4-carbonyl)phenyl)-1H-pyrrolo[2,3-b]pyridin-3-yl)-N-cyclopentyl-3,6-dihydropyridine-1(2H)-carboxamide 2,2,2-trifluoroacetate] was 290 nM; that for `O=C(NC1CCCC1)N1CC=C(c2c[nH]c3ncc(-c4cc(Cl)cc(C(=O)N5CCOCC5)c4)cc23)CC1` [Example 77, 4-(5-(3-Chloro-5-(morpholine-4-carbonyl)phenyl)-1H-pyrrolo[2,3-b]pyridin-3-yl)-N-cyclopentyl-3,6-dihydropyridine-1(2H)-carboxamide 2,2,2-trifluoroacetate] was 250 nM.
